The values below are quoted from earlier work in patent US20240100064A1, “METHODS OF TREATING NEURODEVELOPMENTAL DISORDERS” (Woolsey Pharmaceuticals, Inc., priority 2020, published 2024).

Molecules are shown by their SMILES. Structures can show the parent of a compound that is named as a salt.

Data set [1] concerns oligophrenin-1-deficient mice.
For data set [2] the following is noted: in vivo, 1-hydroxy metabolite (Shibuya 2001).
[3] abbreviates: oligophrenin-1-deficient mice (Allegra et al. 2017).
Where [4] appears, read: oligophrenin-1 deficient mice (Meziane et al. 2016).

For `O=S(=O)(c1cccc2cnccc12)N1CCCNCC1` [Fasudil, Hexahydro-1-(5-isoquinolinesulfonyl)-1H-1,4-diazepine monohydrochloride hemihydrate], in data set [1] (setting [3]), the rescuing axon formation entry was “not effective” and the spine density entry is “restored”. Also, the hippocampal hyperexcitability result in data set [1] (oligophrenin-1 deficient mice (Busti 2020)) is recorded as “rescue”. Besides, in data set [1] (setting [4]), the behavioral changes result is listed as “reverse” and the brain ventricular enlargement result is listed as “reverse”.
With `O=S(=O)(c1cccc2c(O)nccc12)N1CCCNCC1` [M3], in data set [2], the half-life result is reported as “about 8 hours”.
